Test results as given in patent US20180015051A1, “MODULATORS OF ALPHA-DICARBONYL DETOXIFICATION AND THEIR USE FOR THE TREATMENT OF DIABETIC PATHOLOGIES” (Buck Institute for Research on Aging, priority 2016, published 2018).

Columns and labels:
TRPM8 (mouse) = biological target: T1, TRPM8 (mouse) (Mus musculus, UniProt Q8R4D5); experiment: Calcium imaging of HEK293T cells (Rhod-3 AM), mouse TRPM8; type: cell-based; conditions: HEK293T transfected with mouse TRPM8 and GFP; 100 pM MGO then 100 pM menthol
T1 construct: expressed in transfected cells; host or cells: HEK293T
Protocol: (§1) Appropriate HEK293T-derived cells were seeded on collagen-coated glass bottom culture dishes (MatTek Corporation). Cells were loaded with 10 pM of Rhod-3 AM (Life Technology) for 30 min at 37° C. After 30 min they were washed twice with standard Tyrode's solution (135 mM NaCl, 4 mM KCl, 10 mM glucose, 10 mM HEPES, 2 mM CaCl2, and 1 mM MgCl2 at pH=7.4) at room temperature. Calcium imaging was performed on an Olympus BX51WI Axiovert microscope under a 60× objective. Fluorescent images were documented upon sequential excitation with 555 nm followed by 484 nm with a Roper CoolSnap CCD camera. After establishing a baseline 555/484 ratio, methylglyoxal or other agonists were diluted with Tyrode's solution (100 pM or 1 mM final concentration) and were perfused into cells. Images were processed with the MetaFlour (Olympus) software.

native HEK293T cells = experiment: Calcium imaging of native HEK293T cells (GFP only); type: cell-based
Protocol: as §1

TRPA1 (worm) = biological target: T2, TRPA1 (worm) (Caenorhabditis elegans, UniProt Q18297); experiment: Calcium imaging of HEK293T cells (Rhod-3 AM), worm TRPA1; type: cell-based, C. elegans; conditions: HEK293 cells transfected with worm TRPA1 and GFP; 100 pM AITC
T2 construct: expressed in transfected cells; host or cells: HEK293T
T2 sequence (Q18297 1-1211): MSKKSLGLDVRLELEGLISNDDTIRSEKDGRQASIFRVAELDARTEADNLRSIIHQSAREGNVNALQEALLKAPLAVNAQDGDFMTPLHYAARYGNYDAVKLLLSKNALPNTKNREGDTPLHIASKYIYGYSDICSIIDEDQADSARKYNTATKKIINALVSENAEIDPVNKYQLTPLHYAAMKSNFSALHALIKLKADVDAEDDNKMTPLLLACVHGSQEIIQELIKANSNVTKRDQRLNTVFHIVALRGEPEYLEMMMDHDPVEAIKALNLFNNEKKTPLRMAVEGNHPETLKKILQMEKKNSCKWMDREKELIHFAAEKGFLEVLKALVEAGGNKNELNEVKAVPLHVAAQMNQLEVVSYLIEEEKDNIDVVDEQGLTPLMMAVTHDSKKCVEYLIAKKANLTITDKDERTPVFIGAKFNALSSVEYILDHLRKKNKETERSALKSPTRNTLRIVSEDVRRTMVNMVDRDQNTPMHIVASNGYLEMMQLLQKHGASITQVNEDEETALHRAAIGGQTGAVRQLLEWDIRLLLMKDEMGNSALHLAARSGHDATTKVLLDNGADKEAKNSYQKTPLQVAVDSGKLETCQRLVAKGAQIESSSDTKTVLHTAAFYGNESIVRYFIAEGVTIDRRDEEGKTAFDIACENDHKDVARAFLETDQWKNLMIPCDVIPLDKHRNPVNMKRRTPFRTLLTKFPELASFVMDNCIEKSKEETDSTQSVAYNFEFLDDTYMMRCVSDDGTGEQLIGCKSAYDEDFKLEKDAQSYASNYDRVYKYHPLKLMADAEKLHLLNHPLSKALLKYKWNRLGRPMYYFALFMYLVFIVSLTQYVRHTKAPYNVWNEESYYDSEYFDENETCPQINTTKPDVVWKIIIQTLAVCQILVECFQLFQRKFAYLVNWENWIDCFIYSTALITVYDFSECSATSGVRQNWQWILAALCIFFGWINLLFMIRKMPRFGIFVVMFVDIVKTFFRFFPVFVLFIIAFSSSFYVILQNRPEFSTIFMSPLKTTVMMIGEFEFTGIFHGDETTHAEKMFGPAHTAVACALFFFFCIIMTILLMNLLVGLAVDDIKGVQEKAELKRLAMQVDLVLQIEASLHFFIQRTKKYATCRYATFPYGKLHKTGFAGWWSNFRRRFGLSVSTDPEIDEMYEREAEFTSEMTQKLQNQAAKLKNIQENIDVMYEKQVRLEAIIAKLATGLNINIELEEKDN
Protocol: as §1

TRPA1 (RAT) = biological target: T3, TRPA1 (RAT) (Rattus norvegicus, UniProt Q6RI86); conditions: stated as known; cited from earlier work
T3 construct: expressed in transfected cells; host or cells: HEK293T

glod-4 animals = experiment: LC-MS/MS estimation of a-DC levels (MGO, GO) in worms; type: in vivo, Caenorhabditis elegans; conditions: glod-4, PA
Protocol: Worms were cultured on NGM agar plates as explained before for lifespan experiments with some modifications: ˜100 animals/60 mm plates were used for each experimental replicate and animals were harvested at day 4 of adulthood with 20 pL M9 buffer in 1.5 mL eppendorf tubes. Worm suspensions were flash-frozen over liquid nitrogen and subsequently homogenized ultrasonically using a Fisher Scientific's 550 Sonic Dismembrator with 80 pL of sodium formate buffer (pH=3) containing 75 pM of 2,3-hexanedione (internal standard, IS). Two 20 s pulses at amplitude setting 4 of the instrument (on ice) were sufficient to completely homogenize worm bodies. To each homogenate tube 20 pL of 100 mg/mL o-phenelynediamine (OPD) solution in sodium formate buffer (pH=3) were added, and the mixture was allowed to react in dark at room temperature for ˜22 h. The long reaction time and the pH are critical parameters in this protocol: first to ensure complete derivatization of a-DCs bound reversibly to protein/glutathione —SHs; and second to prevent in vitro a-DC generation from glycolytic intermediates (DHAP, GAP, etc.) or due to DNA breakdown (Chaplen et al. (1998) Proc. Natl. Acad. Sci. USA, 95: 5533-5538). At the end of the stipulated reaction window, 12 pL of 5 M perchloric acid was added to each tube and incubated on ice for 30 min to ensure complete protein precipitation. Subsequently, the tubes were centrifuged at 10,000 rpm for 10 min, and the supernatant collected and neutralized with 30 pL 4 M NH4OH solution.
Optimization of analyte-specific MRM transitions, such as determination of suitable precursor and product ions and optimal MS parameters for each transition (Q1, precursor→Q3, product) were achieved by isocratic flow injection of the 10 pM solution (final) for each standard- or IS-OPD derivatives. The most intense (Q1→Q3) transition was used as quantifier, whereas the next best transition was used as qualifier for each compound (Table 4). For LC separation, a solvent gradient of 0.1% acetic acid in water (aqueous) - methanol (organic) was used with 0.4 mL/min flow rate, starting with an […] content of 3% for 0.7 min, which was increased to 100% over 6 min and held at 100% for 1.5 min. The LC column was subsequently reconstituted to its initial condition (methanol content of 3%) over the next 0.5 min and re-equilibrated for 3 min.
Derivatized metabolome extracts, as well as synthetic a-DCs were analyzed by scheduled LC-MRM in positive ion mode. To develop the scheduled LC-MRM method, MS/MS data was collected for all transitions across the length of each LC run for a mixture of synthetic GO-, MGO-, 3DG-, and 2,3-hexanedione (IS)-OPD derivatives (1 pL injection of 1 pM final concentration). Source conditions were as follows: curtain gas (CUR) 20, nebulizer gas (GS1) 60, auxiliary gas (GS2) 50, ionspray voltage (IS) 4500 V, and source temperature (TEM) 450° C. This step was undertaken to ascertain the LC retention times (RT) for the OPD derivatives. Several such sets were acquired to compute analyte-specific variability in RTs. Next, the MS was switched to operate in scheduled MRM mode, whereby the mass spectrometer acquired data for specific MRM transitions ±45 s around the computed RT for the analyte (Table 4). Relative quantification of GO, MGO, and 3DG were based on integration of corresponding OPD derivative-specific quantifier peaks obtained from scheduled LC-MRM runs (peak areas) and adjusted to the number of animals. To account for OPD derivatization efficiencies in individual tubes, sample-to-sample variability in MS response, and differential sample dilutions (both for synthetic a-DCs as well as a-DCs in worm homogenates), the peak areas were normalized to the quantifier peak area for IS-OPD for each sample.

C. elegans [1] = experiment: Touch assay (touch index, gentle touch); conditions: glod-4, young adult stage; 66.7 pM in DMSO
Protocol: For feeding RNAi bacteria, synchronized L1 larvae were transferred to NGM plates containing 1 mM of isopropyl P-D-1- thiogalactopyranoside/IPTG (referred to as RNAi plates) seeded with 20× concentrated HT1115 bacteria (cultured overnight at 20° C. at 220 rpm), carrying desired plasmid for RNAi of a specific gene or bacteria carrying empty vector pL4440 as control and allowed to grow on plates for 48 h. For drug assays, synchronized L4 larvae were transferred to either 60 mm NGM plates (with or without IPTG), freshly seeded with 5×E. coli OP50-1 or 20× HT1115 RNAi bacteria. Before seeding, the desired drug (or vehicle control) was mixed with the bacteria. Final drug concentrations were calculated considering the total volume of media and bacteria seeded on the NGM plates.
Briefly, each animal was touched alternately in the head region and in the tail with an eyelash. Typically, an omega turn or diversion in head direction resulting from anterior touch was counted as a positive response. Posterior touch response (not counted towards positive response) functioned towards resetting of the response to anterior touch. Touch index (TI) scores were generated by dividing the total number of positive responses over the […] per animal.
Synchronized glod-4 L1 animals were cultured on NGM agar plates seeded with E. coli OP50-1 until L4. […] Post-transfer into wells, animals were fed OP50-1 bacteria ad libitum while incubating at 20° C. on a rocker for 12 h. DMSO was used as control. Post-incubation with drug or DMSO, animals were transferred from wells onto NGM agar plates seeded with OP50-1 bacteria. Touch assay was performed on individual animal and touch index (TI) was calculated for each compound from the library as mentioned earlier.

SKN-1/Nrf2 = experiment: SKN-1 activation assay (GFP reporters for SKN-1, gst-4, gcs-1; qPCR); type: in vivo, Caenorhabditis elegans; conditions: gst-4p::gfp animals on EV or glod-4 RNAi; PA, LA, or UMP (20 pM)
Protocol: Adult animals were examined for SKN-1/Nrf2 activation using GFP reporters for both SKN-1 and SKN-1 target genes: gst-4 and gcs-1. For exogenous MGO and drug assays, age-synchronized GFP reporter strains were subject to control and treatment conditions for a period of 4-6 hours before microscopy. For RNAi-induced activation studies, GFP reporter strains were fed on HT1115 bacteria expressing empty vector pL4440 or RNAi gene from L1 stage. Synchronized day 1 adult animals were then subjected to microscopic examination. Activation of SKN-1 using SKN-1 fusion reporter was determined as described earlier (An et al. (2003) Genes & Dev. 17: 1882-1893; Onken and Driscoll (2010) PloS One, 5: e8758). Scoring for downstream SKN-1 targets carrying GFP reporter for gcs-1 promoter was performed based on a previous study (Wang et al. (2010) PLoS Genetics, doi. org/10.1371/journal.pgen.1001048) and categorized as follows: ‘high’ for strong GFP signal throughout the intestine, ‘medium’ for GFP signal in the anterior or posterior section of the intestine and ‘low’ for weak or no signal. For animals with gst-4 promoters carrying GFP reporters number of GST-4 positive foci was counted under different conditions as described previously (Fensgardet al. (2010) Aging, 2: 133-159). Quantification of acquired images was done using the Image J™ software (//imagej.nih.gov/ij/).
Total RNA was extracted from nearly 100 age-synchronized adult animals picked and collected in 20 pl of M9 buffer using TRIzol reagent (Life Technologies, CA). Subsequently, 1 pg total RNA was used as template for cDNA synthesis. cDNA was synthesized using the ISCRIPT™ cDNA synthesis kit (Bio-Rad, CA) following manufacturer's protocol. qRT-PCR was carried out using the SensiFAST SYBR No-ROX kit (Bioline, MA) in a LightCycler 480 Real-Time PCR system (Roche Diagnostics Corp., IN). Quantification was performed using the comparative AACt method and normalization for internal reference was done using actin gene act-1.

C. elegans [2] = experiment: Lifespan assay (survival curves); type: in vivo, Caenorhabditis elegans; conditions: glod-4 mutant animals; PA, LA, or UMP (20 pM) vs EtOH control
Protocol: Life span assays were performed in Thermo Scientific Precision incubators at 20° C. After alkaline hypochlorite treatment, synchronized L1 animals were either placed onto NGM plates seeded with 5× concentrated E. coli OP50-1 (cultured on Lysogeny Broth/LB overnight) or on RNAi plates supplemented with 20×HT1115 RNAi bacteria. Post-L4 stage of development, all lifespan assays were performed using FUdR (5-fluoro-2 deoxyuridine) plates to inhibit development and growth of progeny. Every two days, animals were transferred on to new 60 mm NGM or RNAi plates freshly seeded with OP50-1 or HT1115 bacteria (with or without drug), respectively. 90-120 animals were considered for each lifespan experiment. Animal viability was assessed visually or with gentle prodding on the head. Animals were censored in the event of internal hatching of the larvae, body rupture, or crawling of larvae from the plates.

T3 sequence (Q6RI86 whole entry): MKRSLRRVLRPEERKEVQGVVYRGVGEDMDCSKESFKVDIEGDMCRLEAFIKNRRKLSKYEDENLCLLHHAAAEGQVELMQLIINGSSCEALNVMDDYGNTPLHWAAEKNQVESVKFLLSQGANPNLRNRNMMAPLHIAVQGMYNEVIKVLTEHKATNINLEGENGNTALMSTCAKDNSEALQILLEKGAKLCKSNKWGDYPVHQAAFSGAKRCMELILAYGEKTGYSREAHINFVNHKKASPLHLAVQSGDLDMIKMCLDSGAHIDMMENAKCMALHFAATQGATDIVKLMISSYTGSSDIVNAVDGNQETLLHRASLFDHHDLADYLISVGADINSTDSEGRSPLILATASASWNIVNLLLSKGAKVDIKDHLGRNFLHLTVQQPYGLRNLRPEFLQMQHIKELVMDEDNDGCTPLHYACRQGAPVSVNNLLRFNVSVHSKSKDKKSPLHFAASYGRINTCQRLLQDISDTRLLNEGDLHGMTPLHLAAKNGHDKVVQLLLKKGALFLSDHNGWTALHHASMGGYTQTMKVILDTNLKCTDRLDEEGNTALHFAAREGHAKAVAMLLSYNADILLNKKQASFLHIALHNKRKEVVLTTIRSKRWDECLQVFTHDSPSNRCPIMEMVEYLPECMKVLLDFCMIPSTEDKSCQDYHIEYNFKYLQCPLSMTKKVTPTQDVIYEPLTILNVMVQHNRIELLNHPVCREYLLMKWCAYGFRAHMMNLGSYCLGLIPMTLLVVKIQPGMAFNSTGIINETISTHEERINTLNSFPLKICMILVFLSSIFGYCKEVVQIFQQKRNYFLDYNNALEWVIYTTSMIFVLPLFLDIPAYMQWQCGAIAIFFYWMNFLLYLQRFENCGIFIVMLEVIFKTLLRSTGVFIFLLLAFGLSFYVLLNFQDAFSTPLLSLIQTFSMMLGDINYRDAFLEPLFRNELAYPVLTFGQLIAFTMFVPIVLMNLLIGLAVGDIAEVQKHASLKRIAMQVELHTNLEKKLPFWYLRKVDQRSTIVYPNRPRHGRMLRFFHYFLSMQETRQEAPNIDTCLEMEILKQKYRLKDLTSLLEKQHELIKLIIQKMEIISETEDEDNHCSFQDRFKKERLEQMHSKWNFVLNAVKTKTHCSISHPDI
T1 sequence (Q8R4D5 whole entry): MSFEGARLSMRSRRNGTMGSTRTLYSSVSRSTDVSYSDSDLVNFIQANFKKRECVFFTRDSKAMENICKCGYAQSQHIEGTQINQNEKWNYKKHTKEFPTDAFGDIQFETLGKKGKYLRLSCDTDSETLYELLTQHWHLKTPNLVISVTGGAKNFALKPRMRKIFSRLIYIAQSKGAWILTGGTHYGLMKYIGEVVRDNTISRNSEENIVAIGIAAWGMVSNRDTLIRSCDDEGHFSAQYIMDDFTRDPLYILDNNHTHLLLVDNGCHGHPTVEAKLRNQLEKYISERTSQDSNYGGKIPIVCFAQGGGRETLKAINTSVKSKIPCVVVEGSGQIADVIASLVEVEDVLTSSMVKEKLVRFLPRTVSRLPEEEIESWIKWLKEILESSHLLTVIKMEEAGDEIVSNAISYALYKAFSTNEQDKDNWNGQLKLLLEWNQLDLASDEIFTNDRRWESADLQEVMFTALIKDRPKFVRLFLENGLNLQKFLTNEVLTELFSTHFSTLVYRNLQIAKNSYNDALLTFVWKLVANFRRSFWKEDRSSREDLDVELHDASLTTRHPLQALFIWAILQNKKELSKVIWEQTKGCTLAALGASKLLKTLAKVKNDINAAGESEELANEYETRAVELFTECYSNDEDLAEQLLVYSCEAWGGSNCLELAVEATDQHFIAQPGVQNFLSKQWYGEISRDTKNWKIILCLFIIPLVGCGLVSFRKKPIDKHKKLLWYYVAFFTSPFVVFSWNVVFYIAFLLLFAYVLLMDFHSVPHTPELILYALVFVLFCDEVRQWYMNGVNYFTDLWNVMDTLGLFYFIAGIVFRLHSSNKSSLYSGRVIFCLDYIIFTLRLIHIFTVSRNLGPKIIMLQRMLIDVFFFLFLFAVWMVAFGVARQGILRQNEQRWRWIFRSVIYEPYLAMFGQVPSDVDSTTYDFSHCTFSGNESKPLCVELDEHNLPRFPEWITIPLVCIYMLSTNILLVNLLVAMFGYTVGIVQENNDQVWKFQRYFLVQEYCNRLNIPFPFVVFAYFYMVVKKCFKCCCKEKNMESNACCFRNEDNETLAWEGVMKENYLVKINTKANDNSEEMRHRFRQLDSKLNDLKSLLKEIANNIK

With `CC1CCC(C(C)C)C(O)C1` (stereo not drawn) [menthol] the “Ca2+ flux through the TRPM8 channel (Rhod-3 AM)” value (TRPM8 (mouse)) was “triggers a Ca^+2 flux” and the “Ca2+ flux in native HEK293T cells (Rhod-3 AM)” value (native HEK293T cells) was “neither compounds resulted in Ca^+2 flux”.
In the case of `C=CCN=C=S` [AITC, allyl isothiocyanate], the “Activation of worm TRPA1 channel (Ca2+ flux, Rhod-3 AM)” value (TRPA1 (worm)) is given as “failed to activate” and the “Activation of mammalian TRPA1” value (TRPA1 (RAT)) is given as “known to activate”.
With `O=c1ccn([C@@H]2O[C@H](COP(=O)(O)O)[C@@H](O)[C@H]2O)c(=O)[nH]1` [UMP, Uridine monophosphate] the “Levels of GO” value (glod-4 animals; LA, or UMP (20 pM each) vs EtOH control) was “does not ameliorate”, the “Levels of MGO” value (glod-4 animals; LA, or UMP (20 pM) vs EtOH control) was “does not ameliorate” and the “Touch sensitivity (touch index) in drug screen of TimTec NPL640” value (C. elegans [1]) was “reduced touch sensitivity”. For the same compound, the “SKN-1 activation (GFP foci in gst-4p::gfp)” value (SKN-1/Nrf2) was “nor does it activate SKN-1” and the “Lifespan / early mortality (survival curves)” value (C. elegans [2]) was “does not ameliorate”.
